“Also recorded” adds a separate entry of the source. Where two headings read alike, the source gives them in different places.
Key:
[1] = tested on: A2780 cells; conditions: for type of TTFields-drug interaction (measured vs calculated additive curve): HRP cells; for effect of TTFields on the drug-induced overall effect (cell count x colony formation) / effect of TTFields on the drug-induced effect, cell count: TTFields plus drug vs drug alone; for effect of TTFields on the drug-induced effect, cell count: p<0.0001
Experimental: (§1) Cells were seeded on coverslip (22 mm diameter; 20×10^3 cells/coverslip for A2780 and A2780cis; 40×10^3 cells/coverslip for OVCAR-3). After overnight incubation, the coverslips were transferred into in vitro dishes containing 2 ml of media. TTFields at a frequency of 200 kHz (and intensity of 1 V/cm RMS) were applied to the cells for 72 hr using the INOVITRO system (Novocure, Haifa, Israel).
(§2) For efficacy outcomes (cell count, overall effect, and apoptosis), various concentrations of carboplatin (MCE MedChemExpress, HY-17393), olaparib (Cayman Chemical, 10621), or niraparib (Cayman Chemical, 20842) were applied, with or without TTFields.
(§3) Cell count was examined following treatment using Cytek Northern Lights flow cytometer (Cytek Biosciences, USA).
(§4) Treated cells were harvested, re-plated in 6-well plates (500 cells/well for A2780 and A2780cis; 1000 for cells/well OVCAR-3), and grown for 7 (A2780 and A2780cis) or 21 (OVCAR-3) days. Colonies were stained with 0.5% crystal violet, quantified with ImageJ, and expressed as percentages relative to control. Overall effect was calculated by multiplying colony formation with the corresponding cell count.
(§5) The surviving fraction predicted for an additive effect between TTFields and drug was calculated per the various drug concentrations by multiplying the actual measured surviving fractions for the individual treatments one by the other (SFcalculated additive=SFTTFields×SFdrug; SF are expressed as probability). Based on the calculated values, a trendline was determined. Additivity, synergy, or antagonism was defined when the calculated additive trendline overlapped, was above, or was below the actual measured line for TTFields+drug, respectively.
(§6) For quantifying the magnitude of TTFields-drug interaction, interaction index (Ii) values were calculated by the Bliss independence method using mortality values (Mx=1−SFx). Per the various drug concentrations, mortality predicted for an additive effect between TTFields and drug (Mcalculated additive=MTTFields+Mdrug−MTTFields×Mdrug) was divided by the actual measured mortality for TTFields+drug. Additivity was determined when the 95% confidence interval (CI) overlapped 1, synergy when 95% CI<1, and antagonism when 95% CI>1. Lower Ii values were considered indicative of higher synergy levels.

[2] = tested on: OVCAR-3 cells; conditions: for effect of TTFields on the drug-induced overall effect (cell count x colony formation) / effect of TTFields on the drug-induced effect, cell count: TTFields plus drug vs drug alone; for effect of TTFields on the drug-induced effect, cell count: p<0.0001; for sensitivity to drug (cell count dose response): drug alone, compared among A2780, OVCAR-3, A2780cis
Experimental: as §1, §2, §3, §4, §5, §6

[3] = tested on: A2780cis cells; assay: Cell count and overall effect (cell count x colony formation) after 72 h drug with or without TTFields; type: cell-based, human; conditions: for effect of TTFields on the drug-induced overall effect (cell count x colony formation) / effect of TTFields on the drug-induced effect, cell count: TTFields plus drug vs drug alone; for effect of TTFields on the drug-induced effect, cell count: p<0.0001; for sensitivity to drug (cell count dose response) / effect of TTFields on sensitivity to / effect of the drug / type of TTFields-drug interaction (measured vs calculated additive curve): 72 h; for sensitivity to drug (cell count dose response): compared among A2780, OVCAR-3, A2780cis; for effect of TTFields on sensitivity to / effect of the drug: platinum-resistant cell line; for effect of TTFields on sensitivity to / effect of the drug / type of TTFields-drug interaction (measured vs calculated additive curve): TTFields 200 kHz, 1 V/cm RMS; for type of TTFields-drug interaction (measured vs calculated additive curve): platinum-resistant cells
Experimental: (§7) TTFields were applied to the cells for 72 h in the absence or presence of various concentrations of carboplatin. Synergy was defined when the observed value was lower than that predicted for an additive effect (presented by the red dotted line-calculated by multiplying the observed effects for TTFields alone with that for cisplatin alone).
The Cytotoxic effect was also determined. Treated cells were counted using a flow cytometer, and cytotoxic effect was calculated relative to control cells.
Treated cells were harvested, re-plated, and grown for an additional 7-14 days. Colonies were stained (0.5% crystal violet solution), counted, and clonogenic effect was calculated relative to control. The overall effect was calculated by multiplying the cytotoxic and clonogenic effects.
TTFields application was studied. Ovarian carcinoma cells A2780cis (cisplatin resistant cells) were treated for 72 h with TTFields at an intensity of 1 V/cm RMS and a frequency of 200 kHz using the inovitro system (See FIG. 11).
as §7, with “PARPi Olaparib and Niraparib.” for “carboplatin.”
The cytotoxic effect was studied. Treated cells were counted using a flow cytometer, and cytotoxic effect was calculated relative to control cells.
Treated cells were harvested, re-plated, and grown for an additional 7-14 days. Colonies were stained (0.5% crystal violet solution), counted, and clonogenic effect was calculated relative to control. Overall effect was calculated by multiplying the cytotoxic and clonogenic effects.
as §1, §2, §3, §4, §5
For quantifying the magnitude of TTFields-drug interaction, interaction index (Ii) values were calculated by the Bliss independence method using mortality values (Mx=1−SFx). Per the various drug concentrations, mortality predicted for an additive effect between TTFields and drug (Mcalculated additive=MTTFields+Mdrug−MTTFields×Mdrug) was divided by the actual measured mortality for TTFields+drug.

[4] = tested on: A2780 cells; assay: Apoptosis, Annexin V/7-AAD staining, flow cytometer; type: cell-based, human; conditions: TTFields applied with drug
Experimental: (§8) Apoptosis: Treated cells were double-stained with FITC-conjugated annexin V (AnnV) and 7-aminoactinomycin D (7AAD), and data acquisition was performed with a flow cytometer.
(§9) Apoptosis was also examined. Treated cells were double-stained with FITC-conjugated annexin V (AnnV) and 7-aminoactinomycin D (7AAD), and data acquisition was performed with a flow cytometer.
(§10) Treated cells were stained with FITC-conjugated Annexin V (AnnV) and 7-Aminoactinomycin D (7-AAD) using a commercial kit (BioLegend, San Diego, CA, USA), according to the manufacturer's instruction. Data acquisition and analysis were done on the Cytek Northern Lights flow cytometer

[5] = tested on: OVCAR-3 cells; assay: as above; type: cell-based, human; conditions: TTFields applied with drug
Experimental: as §8, §10

[6] = tested on: A2780cis cells; assay: as above; type: cell-based, human; conditions: TTFields applied with drug
Experimental: as §9
Treated cells were double-stained with FITC-conjugated annexin V (AnnV) and 7-aminoactinomycin D (7AAD), and data acquisition was performed with a flow cytometer.
as §10

[7] = tested on: γH2AX foci in cell nuclei; assay: DNA damage examination by fluorescence microscopy; type: cell-based, human
Experimental: For DNA damage and cell cycle examination, the following drug concentrations were selected: For A2780—6 μM carboplatin, 1 μM olaparib, and 0.5 μM niraparib; For OVCAR-3-16 μM carboplatin, 0.5 μM olaparib, and 0.8 μM niraparib; For A2780cis—36 μM carboplatin, 10 μM olaparib, and 1.5 μM niraparib. Treated cells were fixed with 4% paraformaldehyde for 10 min, permeabilized for 20 min with 0.5% Triton X-100 in PBS, and blocked with donkey serum (PBS with 0.3% Triton X-100 and donkey serum 1:100). Cells were incubated at 4° C. overnight with anti-γH2AX antibody (Cell Signaling, Danvers, MA, USA; #9718, 1:400), followed by incubation at room temperature for 1 hr with Alexa Flour 488-conjugated secondary antibody (Jackson Immunoresearch, Cambridge, UK; #711-545-152, 1:500) and […] 4′,6-diamidino-2-phenylindole (DAPI; Sigma Aldrich, Rehovot, Israel). LSM 700 laser scanning confocal system (Zeiss, Gottingen, Germany) was utilized to obtain images, and the mean number of foci per nucleus was determined using the FIJI software with the BioVoxxel plugin.

[8] = tested on: G2/M cell cycle arrest; assay: Cell cycle analysis (7-AAD, flow cytometer); type: cell-based, human
Experimental: For DNA damage and cell cycle examination, the following drug concentrations were selected: For A2780—6 μM carboplatin, 1 μM olaparib, and 0.5 μM niraparib; For OVCAR-3-16 μM carboplatin, 0.5 μM olaparib, and 0.8 μM niraparib; For A2780cis—36 μM carboplatin, 10 μM olaparib, and 1.5 μM niraparib. Treated cells were fixed with 70% ice-cold ethanol for 30 min, pelleted, washed, and stained for 30 min at 37° C. in phosphate buffered saline (PBS) containing 1% FBS 5 μg/ml 7-AAD (BioLegend), 200 μg/ml RNase, 1 mM EDTA and 0.1% Triton X-100. Data acquisition (at 665/30 nm) and analysis were done on the Cytek Northern Lights flow cytometer and the FlowJo 10.8.1 software (BD Biosciences), respectively.

[9] = Bliss independence, TTFields plus drug
[10] = TTFields 200 kHz, 1 V/cm RMS, 72 h
[11] = treatment alone, all cell lines (A2780, OVCAR-3, A2780cis), relative to control

Row | SMILES | type of TTFields-drug interaction (measured vs calculated additive curve) [1, 10] | type of TTFields-drug interaction, overall effect (cell count and clonogenic effect) [1, 10] | effect of TTFields on the drug-induced overall effect (cell count x colony formation) [1] | effect of TTFields on the drug-induced effect, cell count [1] | effect of TTFields on the drug-induced overall effect (cell count x colony formation) [2] | effect of TTFields on the drug-induced effect, cell count [2] | sensitivity to drug (cell count dose response) ([2]; 72 h) | effect of TTFields on the drug-induced overall effect (cell count x colony formation) [3] | effect of TTFields on the drug-induced effect, cell count [3] | sensitivity to drug (cell count dose response) ([3]; drug alone) | effect of TTFields on sensitivity to / effect of the drug [3] | type of TTFields-drug interaction (measured vs calculated additive curve) [3] | effect of TTFields on the apoptotic effect / apoptotic cell fraction [4] | effect of TTFields on the apoptotic effect / apoptotic cell fraction [5] | effect of TTFields on the apoptotic effect / apoptotic cell fraction [6] | levels of γH2AX foci, monotherapy [7, 11] | cell cycle arrest, drug alone [8] | other results
1 | N.N.O=C([O-])C1(C(=O)[O-])CCC1.[Pt+2] [carboplatin] | tendency to synergism; also recorded: additive; also recorded: tendency to synergy | Signs of synergy | significantly elevated | significantly amplified | significantly elevated | significantly amplified | highest sensitivity | significantly elevated | significantly amplified | lower response; also recorded: highest resistance | increased the sensitivity | synergistic; also recorded: synergistically; also recorded: tendency to synergy | enhanced; also recorded: increases | enhanced; also recorded: increases | increases | more pronounced effect | induced G2/M arrest | interaction index (Ii), 95% confidence interval [1, 9]: smaller than 1; type of TTFields-drug interaction, cytotoxic effect (cell count) ([1]; TTFields 200 kHz, 1 V/cm RMS, 72 h, BRCA wt): Signs of synergy; interaction index (Ii), 95% confidence interval [2, 9]: > 1; level of TTFields-drug synergy ([3]; A2780cis relative to A2780 cells, by Ii): higher levels; interaction index (Ii), 95% confidence interval [3, 9]: smaller than 1; decreased sensitivity of A2780cis cells compared with wild type A2780 cells ([3]; drug alone, titration): 5 fold; levels of γH2AX foci, monotherapy ([7]; drug alone, OVCAR-3 cells): especially dramatic
2 | NC(=O)c1cccc2cn(-c3ccc([C@@H]4CCCNC4)cc3)nc12 [niraparib] | high synergy | synergistically | significantly augmented | significantly augmented | significantly augmented | significantly augmented | highest sensitivity | significantly augmented | significantly augmented | highest resistance | increased the sensitivity | tendency to synergy | enhanced; also recorded: elevation | enhanced; also recorded: elevation | elevation | mild elevation | induced G2/M arrest | type of TTFields-drug interaction, cytotoxic effect (cell count) [1]: synergistically; level of TTFields-drug synergy ([1]; A2780 relative to A2780cis cells, by Ii): higher; type of TTFields-drug interaction, cytotoxic effect (cell count) [2]: additively; type of TTFields-drug interaction (measured vs calculated additive curve) ([2]; HRD cells, TTFields 200 kHz, 1 V/cm RMS, 72 h): additively; type of TTFields-drug interaction, overall effect (cell count and clonogenic effect) [2, 10]: additive

— patent US20250108213A1, “COMPOSITIONS AND METHODS FOR ENHANCING THE EFFECT OF PLATINUM-BASED SYSTEMIC THERAPY” (NOVOCURE GMBH, priority 2023, published 2025)
